# Reference: PMC4374761, “Pharmacokinetics and Metabolism of 4R-Cembranoid” (PLoS ONE, 2015)
# Several values for one entry are separate records, joined by “and”; a condition that tells them apart may be missing. Identical values can stand only once. Like-named read-outs stand apart in the source and are kept apart here.
# Experiments:
# [1] = 4R plasma stability in human plasma; format: in vitro ADME; settings: 10 μM 4R, 0-60 min at 37°C
# Method: The samples were centrifuged at 18,000 x g for 10 min and the supernatants (100–250 μL) transferred to an HPLC vial containing 900 μl of 60% acetonitrile. The LC-MS/MS analysis was carried out using a high-performance liquid chromatography system consisting of a Shimadzu LC-20AD pump, (Shimadzu Scientific Instruments, Columbia, MA), and a CTC analytics PAL autosampler operating at 10°C (Leap technologies, Carrboro, NC). The MS instrument used was a 4000 QTrap triple quadrupole tandem mass spectrometer (Applied Biosystems/MDS Sciex, Foster City, CA). Electrospray ionization in positive ion mode (ESI+) was used. […] All samples were assayed in duplicate.
# [2] = Plasma and brain 4R concentrations and pharmacokinetics in male rats; format: in vivo, Sprague-Dawley rat; settings: for Kp at 1.5 h: brain and plasma, 90 min after dose, read-out: Ratio Cmax brain/ plasma; for Kp at 1.5 h / Cmax / Tmax / half-life: 6 mg/kg; for bioavailability: read-out: F (bioavailability)
# Method: Twelve-week old male Sprague-Dawley rats weighing 307–373 g at the time of the experiment were used. […] The dosing volume of injection was 0.5 mL/kg for the i.m. and s.c. routes and 5 mL/kg for the i.v. route. […] Animal procedure for housing and care was performed according to the National Research Council (NRC) Guide for the Care and Use of Laboratory Animals and the Animal Welfare Standards incorporated in 9 Code of Federal Regulations Part 3, 1991. The animals had 12 hr light/dark cycles and at least 10 room volumes per hour with no recirculation of air. Purina certified rodent chow and water was provided ad libitum.
# Blood samples were collected via a jugular vein catheter at each of the following time points: 2, 5, 10, 20, 45, 60, 90 min and 2, 4, 8 hr. […] The samples were vortexed, centrifuged and the supernatants removed. The supernatants were evaporated to dryness and reconstituted in a solvent mixture containing 50/50/0.1 acetronile/water/formic acid (v/v/v) with 10ng/mL hexyl nicotinate as internal standard. […] Rat brains were collected at 10, 60 or 90 min, and 8 hr post dose and frozen at -70°C. On the day of the analysis, the brains were homogenized in PBS using 4 parts phosphate buffer and 1 part brain (g/g). […] The lower limit of quantitation of the LC-MS/MS was 20.0 ng/ml for plasma and 100 ng/g for brain.
# Parameters were calculated for each individual animal. The peak concentration in plasma (Cmax) and the corresponding time of maximum concentration (Tmax) were determined directly from the data. The area under the plasma concentration-time curve (AUC) from time 0–8 hr was calculated using the log/linear trapezoidal (i.v. route) or linear up/log down trapezoidal (i.m. and s.c routes) methods. The dose administered was input to the program as mg/kg, and as a result no additional corrections for individual body weights of the animals were necessary. The following parameters and constants were determined for the three groups: observed maximum plasma concentration (Cmax), time to maximum plasma concentration (Tmax), area under the plasma concentration-time curve to the last time point (AUClast), area under the plasma concentration-time curve extrapolated to infinity (AUCinf), terminal phase elimination half-life (t1/2). Bioavailability (F) after i.m. and s.c. administration was calculated using their respective AUCinf values divided by the AUCinf value of the i.v. group.
# [3] = 4R plasma stability in rat plasma; format: in vitro ADME; settings: 10 μM 4R
# Method: The samples were centrifuged at 18,000 x g for 10 min and the supernatants (100–250 μL) transferred to an HPLC vial containing 900 μl of 60% acetonitrile. The LC-MS/MS analysis was carried out using a high-performance liquid chromatography system consisting of a Shimadzu LC-20AD pump, (Shimadzu Scientific Instruments, Columbia, MA), and a CTC analytics PAL autosampler operating at 10°C (Leap technologies, Carrboro, NC). The MS instrument used was a 4000 QTrap triple quadrupole tandem mass spectrometer (Applied Biosystems/MDS Sciex, Foster City, CA). Electrospray ionization in positive ion mode (ESI+) was used. The detection of 4R was performed using the multiple reaction monitoring (MRM) mode. […] All samples were assayed in duplicate.
# [4] = Metabolic stability / metabolite detection in human liver microsomes
# Method: (§1) Pooled male and female human and rat liver microsomes were obtained commercially from BD Bioscience (San Jose, CA) and Xenotech (Lenexa, KS), respectively. […] Reactions were started by the addition of microsomes and stopped by removing 100 μL aliquots at each time point. […] As positive control, 10μM midazolam was incubated with microsomes for 0, 15, 30 and 60 min in a 37°C water bath and with heat-inactivated microsomes for 0 and 60 min. […] All assays were done in duplicates.
# (§2) Reactions were stopped by removing 150 μL aliquots at 0, 5, 15, and 30 min and mixing with acetonitrile containing hexyl nicotinate as internal standard. […] Samples were analyzed in full-scan mode with MS/MS product-ion spectra generated for detected metabolite masses. This was performed using the EMS (enhanced MS scan) mode of the mass spectrometer with IDA (independent data acquisition) experiments to produce MS/MS product-ion spectra for masses detected at sufficient intensities. […] All assays were done in duplicate.
# [5] = Metabolic stability / metabolite detection in rat liver microsomes
# Method: as §1, §2
# [6] = Solubility of 4R in dosing vehicle; format: physicochemical; settings: 12 mg/mL in 10% DMSO and 90% PEG400, room temperature
# Method: The solution was sterile filtered using a Millipore Millex-GS 0.22 μm syringe filter. Dose formulations were prepared on Day 1 prior to dose administration and were maintained at room temperature until administration to the animals.
# [7] = male, Sprague-Dawley, rat, plasma, im, 6 mg/kg i.m.
# [8] = male, Sprague-Dawley, rat, plasma, iv, 6 mg/kg i.v.
# [9] = male, Sprague-Dawley, rat, plasma, sc, 6 mg/kg s.c.
# [10] = 10 μM, 5 min, metabolite detection experiment
# [11] = 10 μM, 15 min, metabolite detection experiment
# [12] = 50 μM, 30 min, metabolite detection experiment
# [13] = both, human, liver microsomes, pH 7.4
# [14] = both, rat, liver microsomes, pH 7.4
# [15] = 10 μM, heat-inactivated microsomes, 60 min
compound,measurement,setting,value
"C/C1=C\[C@H](O)C[C@@](C)(O)/C=C/C(C(C)C)CC/C(C)=C/CC1 (stereo partly drawn) [4R, (1S, 2E, 4R, 6R, 7E, 11E)-cembra-2,7,11-triene-4,6-diol]",mean percent 4R content versus control,[1],96–103%
same,Brain Cmax,[2]; 6 mg/kg i.m.,329 ng/g and 329 ± 50 ng/g
same,time to maximum brain level,[2]; 6 mg/kg i.m.,90 min
same,plasma 4R level,"[2]; 6 mg/kg i.m., by 8 hr post dose",below the LLOQ
same,"brain Cmax, times higher than s.c. or i.m.",[2]; 6 mg/kg i.v.,20 times
same,Brain Cmax,"[2]; 6 mg/kg i.v., at 10 min",6516 ng/g and 6516 ± 1091 ng/g
same,time to reach the brain,"[2]; 6 mg/kg i.v., post dose",≤ 10 min
same,Brain Cmax,[2]; 6 mg/kg s.c.,323 ng/g and 323 ± 90 ng/g
same,time to maximum brain level,[2]; 6 mg/kg s.c.,90 min
same,Brain Cmax,[2]; 6 mg/kg s.c. or i.m.,300 to 400 ng/mL
same,maximum mean 4R brain level,"[2]; 6 mg/kg s.c., at 90 min",323 ± 90
same,plasma 4R level,"[2]; 6 mg/kg s.c., by 8 hr post dose",below the LLOQ
same,Kp at 1.5 h,"[2]; male, Sprague-Dawley, rat, im, 6 mg/kg i.m.",2.49
same,Kp at 1.5 h,"[2]; male, Sprague-Dawley, rat, sc, 6 mg/kg s.c.",2.48
same,concentration at 1 hr,"[2]; male, Sprague-Dawley, rat, brain, intravenous, 6 mg/kg i.v., at 1 hr post dose",3000 ± 771 ng/g
same,AUC(0-inf),"[2]; male, Sprague-Dawley, rat, im, 6 mg/kg i.m., plasma",395 ± 138 ng·h/mL
same,AUC(0-inf),"[2]; male, Sprague-Dawley, rat, iv, 6 mg/kg i.v., plasma",1140 ± 224 ng·h/mL
same,Cmax,[2]; [7],163 ng/mL
same,Tmax,[2]; [7],~1 h
same,half-life,"[2]; male, Sprague-Dawley, rat, plasma, im, 6 mg/kg i.m., male rats, read-out: t1/2 (converted)",~1.5 h
same,bioavailability,"[2]; male, Sprague-Dawley, rat, plasma, intramuscular, 6 mg/kg i.m., AUCinf relative to i.v.",35%
same,concentration at 1 hr,"[2]; male, Sprague-Dawley, rat, plasma, intramuscular, 6 mg/kg i.m., at 1 hr",157 ± 86 ng/mL
same,concentration at 5 min,"[2]; male, Sprague-Dawley, rat, plasma, intravenous, 6 mg/kg i.v., at 5 min",975 ± 104 ng/mL
same,concentration at 8 hr,"[2]; male, Sprague-Dawley, rat, plasma, intravenous, 6 mg/kg i.v., by 8 hr post dose",< 20 ng/mL
same,Cmax,[2]; [8],1020 ± 49 ng/mL
same,half-life,"[2]; male, Sprague-Dawley, rat, plasma, iv, 6 mg/kg i.v., male rats, read-out: t1/2 (converted)",0.6 ± 0.1 h
same,half-life,"[2]; male, Sprague-Dawley, rat, plasma, iv, 6 mg/kg i.v., read-out: elimination t1/2",0.6 h
same,bioavailability,[2]; [8],100%
same,Cmax,[2]; [9],138 ± 28 ng/mL
same,Tmax,[2]; [9],1 h
same,half-life,"[2]; male, Sprague-Dawley, rat, plasma, sc, 6 mg/kg s.c., male rats, read-out: t1/2 (converted)",~1.5 h
same,bioavailability,"[2]; male, Sprague-Dawley, rat, plasma, subcutaneous, 6 mg/kg s.c., AUCinf relative to i.v.",41%
same,concentration at 1 hr,"[2]; male, Sprague-Dawley, rat, plasma, subcutaneous, 6 mg/kg s.c., at 1 hr",134 ± 34 ng/mL
same,AUC(0-inf),"[2]; male, Sprague-Dawley, rat, sc, 6 mg/kg s.c., plasma",466 ± 56 ng·h/mL
same,mean percent 4R content versus control,[3]; 0-60 min at 37°C,97–101%
same,mean percent 4R content,[3]; 60 min at room temperature,96%
same,percent 4R remaining,[4]; [10],18%
same,percent 4R remaining,[4]; [11],less than 2%
same,mean percent 4R remaining,[4]; [12],≤ 7.3%
same,"remaining at 5 min, 1 μM",[4]; [13],8%
same,"remaining at 5 min, 10 μM",[4]; [13],15%
same,"remaining at 0.25 h, 1 μM",[4]; [13],4%
same,"remaining at 0.25 h, 10 μM",[4]; [13],< 2%
same,percent 4R remaining,[5]; [10],34%
same,percent 4R remaining,[5]; [11],less than 2%
same,mean percent 4R remaining,[5]; [12],≤ 7.3%
same,"remaining at 5 min, 1 μM",[5]; [14],19%
same,"remaining at 5 min, 10 μM",[5]; [14],29%
same,"remaining at 0.25 h, 1 μM",[5]; [14],4%
same,"remaining at 0.25 h, 10 μM",[5]; [14],< 2%
same,appearance of 4R formulation (solubility),[6],clear colorless solution
"Cc1ncc2n1-c1ccc(Cl)cc1C(c1ccccc1F)=NC2 [MDZ, Midazolam, reference compound]",percent remaining with heat-inactivated microsomes,[4]; [15],89%
same,percent remaining with heat-inactivated microsomes,[5]; [15],108%
